Experimental data as given in patent US11413280B2 (The Board of Trustees of the Leland Stanford Junior …, priority 2017, dated 2022).

Key:
PASMC = test: MTT proliferation assay in PASMC; assay type: cell-based, human; conditions: siFHIT PASMC, Enzastaurin 5 M as printed
PKC = PKC and p-PKC protein expression in lung tissue of SuHx rats (immunoblot); assay type: in vivo, rat; conditions: whole lung tissue, 5 mg/kg daily oral gavage
Description: Experimental PAH was induced in male Sasco Sprague Dawley rats by subcutaneous injection of 20 mg/kg body weight SU5416.

PAEC = test: Trypan Blue viability assay and total cell counts; assay type: cell-based, human
BMPR2 = test: Relative BMPR2 mRNA expression in PAECs (qPCR); assay type: cell-based, human; conditions: PAEC, 24 hours, low doses (5-15 uM), FIG. 14
Description: Human PAEC (Promocell) or human PASMC (Promocell) were grown as monolayers in gelatin-coated dishes in a commercial EC (Promocell) or SMC (Promocell) media, respectively. Cells were passaged at 1:3 ratios and used for experiments from passages 3-8. Transformed lymphocytes (i.e., lymphoblasts) were cultured in RPMI 1640 with 10-15% FBS.
FHIT expression was modulated by RNAi in PA endothelial cells (PAEC). A pool of 4 siRNAs for BMPR2, FHIT, LCK or a non-targeting control pool (Dharmacon) were transfected into PAECs using the RNAi Max kit (Invitrogen) for 48 hours. mRNA knockdown efficiency was determined by qPCR.
For mRNA, total RNA was extracted from whole lung tissue using the RNAeasy Plus Kit (Qiagen) and reverse transcribed into cDNA using random primers with the Taqman cDNA reverse transcription Kit (Applied Biosciences) according to the manufacturer's instructions. For miR, total miR was isolated from whole lung tissue using the Taqman miRNA ABC purification Kit (Applied Biosciences) and was reverse transcribed using specific primers and the Taqman microRNA reverse transcription kit (Applied Biosciences). mRNA and miR expression levels were quantified using Taqman primer/probe sets for the target and normalized to a housekeeping control (mRNA: GAPDH; miR: RNU48). […]

miR27a = test: Relative miR27a expression in PAECs (qPCR); assay type: cell-based, human; conditions: 15 μM Enzastaurin 24 hours

Structure (SMILES): Cn1cc(C2=C(c3cn(C4CCN(Cc5ccccn5)CC4)c4ccccc34)C(=O)NC2=O)c2ccccc21 [Enzastaurin, 3-(1-methyl-1H-indol-3-yl)-4-[1-[1-(pyridin-2-ylmethyl)piperidin-4-yl]-1H-indol-3-yl]-1H-pyrrole-2,5-dione]
- Increased PASMC proliferation induced by reductions in FHIT (MTT) (PASMC): rescued
- PKC activation as measured by its phosphorylation (PKC): did not observe a significant decrease
- Total cell counts (PAEC; Enzastaurin up to 50 μM): increased cell numbers
- Cell toxicity by Trypan Blue viability assay (PAEC; varying concentrations of Enzastaurin): did not elicit cell toxicity
- BMPR2 expression at low doses in vitro (BMPR2): increased
- siFHIT-mediated increase in miR27a expression (miR27a): inhibited
